These results are taken from US11505797B2, “Gene knockout of variant NRF2 for treatment of cancer” (Christiana Care Health Services, Inc., priority 2019, dated 2022).

Test [1] concerns R34G-mutated NRF2 gene in A549 R34G-6 cells. The test can be described thus: TIDE analysis after transfection of R34G-targeting RNP, A549 R34G-6 cells. The test is classed as cell-based, human. Particulars: GFP-positive sorted population. The method, then:
(§1) The in vitro cleavage reactions were further assessed through cell based-experiments using the same cell lines: A549 and H1703 parental cell lines and the A549 R34G-6 cell line. The cell lines were cultured under the standard conditions and transfected by electroporation (Lonza, Nucleofection) using previously established parameters. FIGS. 27-29 depict the genetic analysis of eight separate experiments using all three cell lines after transfection of the R34G-targeting RNP. This experiment was conducted under three different conditions. The first condition was using an equimolar concentration of duplexed guide RNA to Cas9. The second condition was using five times the amount of duplexed guide RNA to Cas9, along with using a GFP (Green Fluorescent Protein) expression vector to measure transfection efficiency and to sort the GFP-positive population for further analysis. The third condition was using five times the amount of single guide RNA to Cas9, along with the GFP expression vector and sorting of the GFP-positive population for further analysis.
FIG. 28 depicts the genetic analysis after transfection of the R34G-targeting RNP in the A549 R34G-mutated clonal cell line (A549 R34G-6). The A549 R34G-6 cells contain a heterozygous R34G mutation in exon 2 of the NRF2 gene, creating a new CRISPR recognition site for the R34G-targeting RNP. […] The significant total indel efficiency indicates the R34G-targeting RNP is very active. […] The lower R2 value indicates some of the sequence analysis is unaccounted for likely because of sequence quality. […] Although only a speculation, the R34G-targeting RNP does differentiate between the wildtype and R34G-mutated alleles within the clonal cell line.

The test system of the next test is wildtype NRF2 sequence. The test can be described thus: In vitro cleavage reaction, wildtype NRF2 amplicons. The test is classed as biochemical, human. The settings on record: A549 or H1703 parental amplicons, 0.5-5 pmol RNP, gel electrophoresis. The protocol: (§2) As proof of concept, an in vitro cleavage reaction was conducted to assess the level of discrimination using the R34G guide RNA in a ribonucleoprotein complex (RNP). The in vitro cleavage reaction encompasses complexing target specific-guide RNA with Cas9 protein to form a ribonucleoprotein (RNP). The RNP is incubated with DNA of interest (100 ng) and the reaction and cleavage products are visualized by gel electrophoresis. For this experiment, wildtype and R34G-mutated NRF2 PCR products (901 bp) from an NRF2 expression plasmid (FIG. 21) were incubated with R34G-targeting RNP complex (1 μM) and cleavage products were visualized by gel electrophoresis, shown in FIG. 22.
Once the sequences were verified, genomic DNA from each cell line was used to amplify exon 2 of NRF2. The PCR products (530 bp) from each cell line were then used in in vitro cleavage reactions under various parameters to test specificity and fidelity of the R34G-targeting RNP. For these cleavage reactions, expected cleavage products would appear at 385 and 145 bp as indicated by the red lines along the ladder, with uncut product appearing at 530 bp. FIG. 24 depicts the gel image from an in vitro cleavage reaction using wildtype NRF2 sequence from parental A549 cells and R34G-mutated NRF2 sequence from the A549 R34G-6 cells. […]

Test [2] deals with wildtype NRF2 gene in A549 parental cells. Briefly: TIDE analysis after transfection of R34G-targeting RNP, A549 parental cells. The test is classed as cell-based, human. The method, then:
as §1
FIG. 27 depicts the genetic analysis after transfection of the R34G-targeting RNP in the A549 parental cells. The A549 parental cells contain a wildtype NRF2 gene therefore there is no native CRISPR/Cas9 recognition site for the R34G-targeting RNP. […]

Test [3] concerns R34G-mutated NRF2 sequence. The test can be described thus: In vitro cleavage reaction, R34G-mutated NRF2 amplicons. Particulars: gel electrophoresis; for cleavage of R34G-mutated NRF2 amplicon (530 bp): A549 R34G-6 amplicon, 0.5-5 pmol RNP; for cleavage specificity, NRF2 expression plasmid and 901 bp amplicons: wildtype versus R34G NRF2, RNP 1 μM, DNA 100 ng. The test is classed as biochemical, human. The method, then: as §2
Once the sequences were verified, genomic DNA from each cell line was used to amplify exon 2 of NRF2. The PCR products (530 bp) from each cell line were then used in in vitro cleavage reactions under various parameters to test specificity and fidelity of the R34G-targeting RNP. For these cleavage reactions, expected cleavage products would appear at 385 and 145 bp as indicated by the red lines along the ladder, with uncut product appearing at 530 bp. FIG. 24 depicts the gel image from an in vitro cleavage reaction using wildtype NRF2 sequence from parental A549 cells and R34G-mutated NRF2 sequence from the A549 R34G-6 cells. An increasing concentration (0.5-5 pmol) of R34G-targeting RNP was used to determine the threshold and fidelity of the sequence. […] Uncut product (top band, 530 bp) can still be seen in lanes 7-10, which corresponds to the heterozygosity of the R34G mutation in the A549 R34G-6 cell line. Therefore, the wildtype NRF2 allele in the A549 R34G-6 cell line acts as an internal negative control.
Another in vitro cleavage reaction was conducted to assess the cleavage efficiency of the wildtype NRF2 sequence to ensure the R34G-targeting RNP was, in fact, not cleaving the wildtype NRF2 sequence because of the lack of the R34G mutation. A guide RNA with a cut site 29 bp upstream (labeled Neh2 RNP) from the R34G RNP cut site was selected and used as a positive cleavage control. […] Lanes 1-8 were reactions using wildtype NRF2 sequence while lanes 9-16 were reactions using R34G-mutated NRF2 sequence. In lanes 2-4 and 10-12, PCR products were incubated with increasing concentrations (1, 3 & 5 pmol) of RNP targeting the beginning of exon 2 (Neh2 RNP). The Neh2 guide RNA sequence is: 5′ […] 3′ (SEQ ID NO:13) which is a native CRISPR site and used as the positive control for cleavage for these reactions. […] In lanes 6-8 and 14-16, PCR products were incubated with increasing concentrations (1, 3 & 5 pmol) of R34G-targeting RNP. […] This further reinforces the specificity of the R34G-targeting RNP only recognizing the target DNA in the presence of the R34G mutation in exon 2 of NRF2. […]

The subject of test [4] is wildtype NRF2 gene in NCI-H1703 cell line. The test can be described thus: TIDE analysis after transfection of R34G-targeting RNP, H1703 parental cells. The test is classed as cell-based, human. The method, then:
as §1
FIG. 29 depicts the genetic analysis after transfection of the R34G-targeting RNP in the NCI-H1703 cell line, which contains a wildtype NRF2 gene and no native CRISPR recognition site.

The mark [5] stands for this setting: top panel, bulk unsorted population.

Where “and” joins values, the source holds several entries; their conditions need not be identical. Equal entries are not always repeated. Entries after “also recorded” stand apart in the source; their conditions may differ.

For the substance “5′ GATATAGATCTTGGAGTAAGTGG 3′ [R34G-targeting RNP]”, the total indel efficiency was 32.7% in test [1] (bottom panel); 55.7% in test [1] (middle panel); 11.4% and 11.3% in test [2] (bottom panel, GFP-positive sorted population); 11.8% and 11.4% in test [2] (setting [5]); 4.6% in test [4] (bottom panel, GFP-sorted population); 0.0% in test [4] (setting [5]). Further, the “sequence analyzed that is wildtype” value in test [1] (middle panel) is listed as 32.0%. Besides, the “cleavage of wildtype NRF2 amplicon (530 bp)” value in the test on wildtype NRF2 sequence is given as “does not result in cleavage of wildtype NRF2 sequence; also recorded: minimal cleavage seen in lanes 6-8”. Moreover, the “cleavage of R34G-mutated NRF2 amplicon (530 bp)” value in test [3] is on record as “cleavage products can be seen even with half of the standard concentration; also recorded: clearly seen”. The “cleavage specificity, NRF2 expression plasmid and 901 bp amplicons” value in test [3] was “only recognizes and cleaves the mutated DNA sequence”; in test [3] (listed as R34G RNP) it was “only recognizes and cleaves with the mutation present”.
On to “5′ TGGATTTGATTGACATACTTTGG 3′ [Neh2 RNP]”, for which the “cleavage of wildtype NRF2 amplicon (530 bp)” value with wildtype NRF2 sequence is “can be seen in both wildtype and R34G-mutated NRF2 sequences”. Besides, the “cleavage of R34G-mutated NRF2 amplicon (530 bp)” value in test [3] is “can be seen in both wildtype and R34G-mutated NRF2 sequences”.
